A short description of data set [1]: Photophysical characterization. Particulars: for ε / λabs / λem: 3:7 v/v MeCN:PBS (pH=7.4); for PABF: PA Brightness Factor; for Φ: relative to dimethoxy aza-BODIPY. The format is physicochemical. The protocol:
Photophysical Characterization. Extinction coefficients and fluorescence quantum yields were acquired in experimental triplicates. Extinction coefficients were measured by performing serial dilutions of the compounds in 3:7 v/v MeCN:PBS (pH=7.4) within the linear range (absorbance values between 0.05-1.5). Reported fluorescence quantum yields are relative quantum yields compared to dimethoxy aza-BODIPY (Φ=0.36, chloroform). The compounds were titrated into acetonitrile or 3:7 MeCN/PBS (pH=7.4) such that their absorbance values were kept below 0.1 to prevent secondary absorbance events. The refractive index of 3:7 v/v MeCN:PBS (pH=7.4) was measured to be 1.343. Characterization of mvpCu and t-mvpCu were conducted in 1:1 v/v DMF:HEPES (50 mM, pH=7.4).

A short description of data set [2]: Log D7.4 measurements (octanol/PBS partition). Particulars: octanol/PBS pH 7.4. The format is physicochemical. Here is the method:
Log D7.4 Measurements. Log D measurements were conducted in technical triplicate and 5 experimental replicates. Samples at a known concentration (n=3) were added to Eppendorf tubes containing PBS (pH=7.4, 500 μL) and octanol (500 μL). The Eppendorf tubes were each vortexed for 30 seconds and subsequently subjected to microcentrifuge for 1 minute. Then the PBS and octanol layers were pipetted into a clear 96-well plate. The absorbance values were taken using a SpectraMax M2 plate reader. The log of (dye absorbance in octanol/dye absorbance in PBS) was calculated and averaged across different concentrations to generate the log D7.4.

The subject of data set [3] is 4T1 orthotopic breast cancer. The experiment in a line: In vivo fluorescence imaging of tumor-bearing mice. The arrangement: species or system BALB/c mice. Particulars: for fluorescence signal enhancement of the tumor site relative to initial background scan: 1.2 mg/kg retroorbital. The protocol: In Vivo Imaging. Before all imaging, hair on the bottom half of mice were removed via an electric razor and depilatory cream. In both FL and PA imaging, a background scan was taken of each mouse before injection. For PA imaging experiments, mice were allowed to equilibrate in the water tank for 10 min, and all scans were collected on H2O mode at 34° C.
Fluorescence Imaging with mvGlu-AB2 and mvGlu-AB3. 4T1 cells were trypsinized, neutralized with growth media, and counted on a Countess II FL Cell Counter (Invitrogen, Thermo Fisher Scientific). Cells were spun down, media was aspirated, and a solution was made in 1:1 serum-free RPMI media to VitroGel® hydrogel. Mice were injected in the mammary fat pad with 300,000 cells (50 μL) of the cell solution. Tumors grew for around 1.5-2 weeks and the mice were imaged once tumors reached 100 mm^3. Dyes (1.2 mg/kg) were dissolved in 0.9% saline (5% DMSO) and injected retroorbitally. Mice were imaged using the CRi Maestro In-Vivo Fluorescence Imaging System at timepoints=0, 6, 8, 12, 16, 24, and 48 hours. Excitation occurred at 680 nm, and light was collected from 690-850 nm (n=3).

Data set [4] deals with A549 cells. The experiment in a line: MTT cytotoxicity assay. It is filed as cell-based, human. Particulars: A549, up to 15 μM, 6-hour incubation. The protocol:
(§1) MTT Cytotoxicity Assay. A 96-well plate was seeded with 30,000 cells per well and incubated at 37° C. with 5% CO2 for 24-48 hours (˜70% confluent). The media was removed and replaced with fresh serum-free medium (200 μL) containing vehicle control (DMSO) or dye (4, 6, 10, or 15 μM). After 4 hours, the media was removed and replaced with a 20:1 mixture of PBS and (3-(4,5-dimethylthiazol-2-yl)-2,5-diphenyl-tetrazolium bromide (MTT, 5 mg/mL stock in PBS). The cells were incubated for 2 hours under the same conditions, and then the media was removed, replaced with DMSO (200 μL), and the absorbance of each well was recorded at 555 nm on a SpectraMax M2 plate reader. Percent viability was calculated relative to the vehicle control (n=8).

For data set [5], the system named is A549 human lung cancer cells. As to the kind of experiment: Cellular uptake studies (epifluorescence imaging). The format is cell-based. Here is the method: Cell Culture. A549 lung cancer cells and 4T1 murine breast cancer cells were acquired from ATCC. A549 cells were cultured in Ham's F-12K Medium containing 10% FBS and 1% penicillin streptomycin solution, and 4T1 cells were cultured in RPMI-1640 Medium containing 10% FBS and 1% penicillin streptomycin solution. Cells were incubated at 37° C. with 5% CO2. Experiments were performed in 8-well plates (Nuc Lab-Tek Chambered Coverglass, Thermo Scientific) or 96-well plates (Nuclon Delta Surface Flat Bottom, Thermo Scientific).
Cellular Uptake Studies. 8-well borosilicate plates were prepared with poly-L-Lysine coating and seeded with 50,000 cells per well and incubated at 37° C. with 5% CO2 for 24 hours (˜60% confluent). Serum-free media containing mvGlu-AB2 (2 μM), 15 mM Glucose, mvGlu-AB2 (2 μM)+15 mM Glucose, L-mvGlu-AB2 (2 μM), dimethoxy aza-BODIPY (2 μM), or vehicle (DMSO) were prepared. Competition glucose wells were preincubated with 15 mM glucose in serum-free media for 30 minutes. […] The media was removed and replaced with PBS. Cells were imaged using an EVOS FL epifluorescence microscope with a Cy7 filter cube. Four experimental replicates and 3 technical replicates were taken.
Quantification of Cell Imaging Data. In FIJI (ImageJ), ROIs were drawn around representative cells and the integrated density (area×mean gray value) was measured. The total cell fluorescence was calculated by subtracting the integrated density of the cell by the background integrated fluorescence. Technical replicates (n=3) in each well were quantified as the average of 3 cells. Values are reported as the average (+SD) of […] (n=4). Colocalization Studies with mvGlu-AB2. 8-well borosilicate plates were prepared with poly-L-Lysine coating and seeded with 45,000 cells per well and incubated at 37° C. with 5% CO2 for 24 hours (˜60% confluent). Serum-free media containing mvGlu-AB2 (1 μM) was prepared. Cells were incubated for 30 minutes with mvGlu-AB2. The cells were washed 1× with PBS and incubated with the relevant organelle tracker according to the manufacturer recommended protocol. Following incubation with tracker, the cells were washed 1× with PBS. Cells were imaged using an EVOS FL epifluorescence microscope. Lysotracker® Green and Mitotracker® Green were imaged using a GFP filter cube, DAPI was imaged using a DAPI filter cube, and mvGlu-AB2 was image with a Cy7 filter cube. Four experimental replicates and 3 technical replicates were taken.

The test system of data set [6] is 4T1 orthotopic breast cancer. As to the kind of experiment: In vivo PA imaging with mvGlu-AB2. The arrangement: species or system BALB/c mice. The following applies: 6 hr, spectral unmixing. The protocol: In Vivo Imaging. Before all imaging, hair on the bottom half of mice were removed via an electric razor and depilatory cream. In both FL and PA imaging, a background scan was taken of each mouse before injection. For PA imaging experiments, mice were allowed to equilibrate in the water tank for 10 min, and all scans were collected on H2O mode at 34° C. PA Imaging with mvGlu-AB2. 4T1 cells were trypsinized, neutralized with growth media, and counted on a Countess II FL Cell Counter (Invitrogen, Thermo Fisher Scientific). Cells were spun down, media was aspirated, and a solution was made in 1:1 serum-free RPMI media to Geltrex™ LDEV-Free, hESC-Qualified, Reduced Growth Factor Basement Membrane Matrix. Mice were injected in the mammary fat pad with 250,000 cells (50 μL) of the cell solution. Tumors grew for around 1.5-2 weeks and the mice were imaged once tumors reached 100 mm^3. mvGluAB-2 was reconstituted in 0.9% saline (5% DMSO) and injected retroorbitally. PA images were taken at timepoints=0 and 6 hours in 5 nm increments from 660-700 nm. Images were spectrally unmixed from hemoglobin, deoxyhemoglobin, and melanin (n=4).

Data set [7] relates to 4T1 cells. As to the kind of experiment: MTT cytotoxicity assay. It is filed as cell-based, murine. The following applies: 4T1, up to 15 μM, 6-hour incubation. The protocol: as §1
The conditions of data set [8]: chloroform; cited from earlier work.

On to `COc1ccc(C2=[N+]3C(=Nc4c(-c5ccc(OCc6cn(C(COC7OC(CO)C(O)C(O)C7O)COC7OC(CO)C(O)C(O)C7O)nn6)cc5)cc(-c5ccc(OC)cc5)n4[B-]3(OC)OC)C(c3ccc(OCc4cn(C(COC5OC(CO)C(O)C(O)C5O)COC5OC(CO)C(O)C(O)C5O)nn4)cc3)=C2)cc1` (centres unmarked) [mvGlu-AB3], for which, in data set [1] (Table 1b), the ε was 24000 M/cm, the λabs was 681 nm, the λem came out at 712 nm and the PABF is listed as 1.7 ×10^4. In data set [1] (Table 1b), this molecule returned a Φ of 0.31. Moreover, in data set [1] (Table 2), the ε turned out to be 24000 M/cm, the λabs is 681 nm, the λem was found to be 712 nm and the PABF was 1.7 × 10^4. Also, the Φ in data set [1] (Table 2) is 0.31. Also, the logD7.4 in data set [2] (Table 2) is −0.71 ± 0.11. Also, in data set [2], the logD7.4 is reported as −0.71±0.11. Also, the “in vivo imaging results compared with mvGlu-AB2” value in data set [3] (FIGS. 17-18) was “comparable”. Also, in data set [3] (after 12 hours), the “fluorescence signal enhancement of the tumor site relative to initial background scan” value is recorded as around 2 fold.

On to `COc1ccc(-c2cc(-c3ccccc3)c3n2[B-](OC)(OC)[N+]2=C(c4ccc(OCc5cn(C(COC6OC(CO)C(O)C(O)C6O)COC6OC(CO)C(O)C(O)C6O)nn5)cc4)C=C(c4ccccc4)C2=N3)cc1` (centres unmarked) [mvGlu-AB1], for which, in data set [1] (Table 1b), the ε turned out to be 18000 M/cm, the λabs was found to be 675 nm, the λem was 710 nm and the PABF is listed as 1.6 ×10^4. This molecule gave a Φ in data set [1] (Table 1b) of 0.10. Moreover, in data set [1] (Table 2), the ε stood at 18000 M/cm, the λabs amounted to 675 nm, the λem is 710 nm and the PABF is recorded as 1.6 × 10^4. This molecule also had a Φ in data set [1] (Table 2) of 0.10. Besides, the logD7.4 in data set [2] (Table 2) was 0.75 ± 0.02. This molecule yielded a logD7.4 in data set [2] of 0.75±0.02.

Consider `CO[B-]1(OC)n2c(-c3ccc(OCc4cn(C(COC5OC(CO)C(O)C(O)C5O)COC5OC(CO)C(O)C(O)C5O)nn4)cc3)cc(-c3ccccc3)c2N=C2C(c3ccccc3)=CC(c3ccc(OCc4cn(C(COC5OC(CO)C(O)C(O)C5O)COC5OC(CO)C(O)C(O)C5O)nn4)cc3)=[N+]21` (centres unmarked) [mvGlu-AB2], for which the “extinction coefficient ε” value in data set [1] came out at 26000 M⁻¹ cm⁻¹. In addition, in data set [1] (Table 1b), the ε amounted to 26000 M/cm, the λabs was determined as 679 nm, the λem came out at 710 nm and the PABF is recorded as 2.1 ×10^4. In data set [1] (Table 1b), this molecule yielded a Φ of 0.19. Also, in data set [1] (Table 2), the ε was found to be 26000 M/cm, the λabs amounted to 679 nm, the λem is 710 nm and the PABF is on record as 2.1 × 10^4. Further, the Φ in data set [1] (Table 2) came to 0.19. The “ε higher than AB-OMe2” value in data set [1] (ratio to AB-OMe2) came to 8.7 fold. Besides, the “cell viability (MTT)” value in data set [4] is listed as “no loss in cell viability”. The molecule further gave a logD7.4 in data set [2] (Table 2) of −1.12 ± 0.16. The logD7.4 in data set [2] is recorded as −1.12±0.16. Also, in data set [5] (A549), the “low dye concentration at which a clear fluorescent signature was apparent” value was 50 nM. In data set [5] (A549, 2 μM), the “brighter than cells treated with l-mvGlu isomer” value was 3 fold. Besides, in data set [5] (A549, dye 2 μM, vs pre-incubation with glucose 15 mM), the “signal intensity higher when glucose was absent” value is 2 fold. Moreover, the “fluorescence signal intensity brighter than AB-OMe2-treated cells” value in data set [5] (A549, imaged after 20 minutes) was above 1000 fold. Moreover, the “PA signal difference of tumor prior to and after injection” value in data set [6] is 4.1 fold. Moreover, the “cell viability (MTT)” value in data set [7] is on record as “no loss in cell viability”. Moreover, in data set [3] (after 8 hours), the “fluorescence signal enhancement of the tumor site relative to initial background scan” value is around 2 fold.

On to `COc1ccc(C2=[N+]3C(=Nc4c(-c5ccccc5)cc(-c5ccc(OC)cc5)n4[B-]3(F)F)C(c3ccccc3)=C2)cc1` [AB-OMe2, reference compound], for which, in data set [1], the “extinction coefficient ε” value is 3000 M⁻¹ cm⁻¹. Further, in data set [1] (Table 1b), the ε was 3400 M/cm, the λabs came out at 689 nm, the λem is 710 nm and the PABF was 0.34 ×10^4. The molecule also showed a Φ in data set [1] (Table 1b) of 0.014. Also, in data set [1] (Table 2), the ε turned out to be 3400 M/cm, the λabs came out at 689 nm, the λem worked out at 710 nm and the PABF is recorded as 0.34 × 10^4. Also, the Φ in data set [1] (Table 2) was found to be 0.014. In addition, the logD7.4 in data set [2] (Table 2) amounted to 2.51 ± 0.92. The logD7.4 in data set [2] was 2.51±0.92. Also, in data set [8], the “fluorescence quantum yield Φ of reference standard” value is 0.36.

The record behind these values is US20260062441A1, “TUMOR-SEEKING GLUCOSE-DENDRONS FOR THE DELIVERY OF CHEMOTHERAPEUTICS AND IMAGING AGENT TO CANCER CELLS” (THE BOARD OF TRUSTEES OF THE UNIVERSITY OF ILLINOIS, priority 2022, published 2026).
